Measurements from US4698350A, “1-ethyl-6-fluoro-1,4-dihydro- 7-(2,6-dimethyl-4-pyridinyl)-4-oxo-3-quinolinecarboxylic acid and antibacterial use thereof” (Sterling Drug Inc., priority 1984, dated 1987).
Values after ≈ are worked out from the molar mass of the structure shown. Like-named read-outs stand apart in the source and are kept apart here.

What was measured:
S. epidermidis 2-1-B = test: In vitro antibacterial MIC/MBC test; type: cell-based; conditions: Staphylococcus epidermidis, 21B, S. epidermidis 2-1-B
Method in brief: (§1)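 Broth microdilution with two-fold serial dilutions in MHB (BHI+1% NHS for streptococci), final inoculum approx. 1×10^5 cells/ml, 37° C. for 18-20 hours. MIC is the lowest concentration preventing visible growth. For MBC, wells were subcultured onto MHA or BHI agar+10% NHS; the MBC is the lowest concentration yielding no recognizable colony.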

S. epidermidis (17917) = test: In vitro antibacterial MIC/MBC test; type: cell-based; conditions: Staphylococcus epidermidis, ATCC17917, S. epidermidis ATCC No. 17917
Method in brief: as §1

S. aureus 59-81 = test: In vitro antibacterial MIC/MBC test; type: cell-based; conditions: Staphylococcus aureus, 5981, S. aureus 59-81
Method in brief: as §1

S. aureus 24-81 = test: In vitro antibacterial MIC/MBC test; type: cell-based; conditions: Staphylococcus aureus, 2481, S. aureus 24-81
Method in brief: as §1

S. pneumoniae Type I = test: In vitro antibacterial MIC/MBC test; type: cell-based; conditions: Streptococcus pneumoniae, S. pneumoniae Type I
Method in brief: as §1

S. aureus VA16951 = test: In vitro antibacterial MIC/MBC test; type: cell-based; conditions: Staphylococcus aureus, S. aureus VA16951
Method in brief: as §1

S. pyogenes 7948-15 = test: In vitro antibacterial MIC/MBC test; type: cell-based; conditions: Streptococcus pyogenes, 794815, S. pyogenes 7948-15
Method in brief: as §1

S. aureus Smith = test: In vitro antibacterial MIC/MBC test; type: cell-based; conditions: Staphylococcus aureus, S. aureus Smith
Method in brief: as §1

S. aureus (25923) = test: In vitro antibacterial MIC/MBC test; type: cell-based; conditions: Staphylococcus aureus, ATCC25923, S. aureus ATCC No. 25923
Method in brief: as §1

S. enterococcus 0-2-13 = test: In vitro antibacterial MIC/MBC test; type: cell-based; conditions: 0213, S. enterococcus 0-2-13
Method in brief: as §1

S. aureus 39881 = test: In vitro antibacterial MIC/MBC test; type: cell-based; conditions: Staphylococcus aureus, S. aureus 39881
Method in brief: as §1

S. aureus S-234 = test: In vitro antibacterial MIC/MBC test; type: cell-based; conditions: Staphylococcus aureus, S234, S. aureus S-234
Method in brief: as §1

S. faecalis 4510 = test: In vitro antibacterial MIC/MBC test; type: cell-based; conditions: Enterococcus faecalis, S. faecalis 4510
Method in brief: as §1

S. aureus 41-81 = test: In vitro antibacterial MIC/MBC test; type: cell-based; conditions: Staphylococcus aureus, 4181, S. aureus 41-81
Method in brief: as §1

S. aureus 4-81 = test: In vitro antibacterial MIC/MBC test; type: cell-based; conditions: Staphylococcus aureus, 481, S. aureus 4-81
Method in brief: as §1

S. epidermidis (12228) = test: In vitro antibacterial MIC/MBC test; type: cell-based; conditions: Staphylococcus epidermidis, ATCC12228, S. epidermidis ATCC No. 12228
Method in brief: as §1

S. aureus 13-8-A = test: In vitro antibacterial MIC/MBC test; type: cell-based; conditions: Staphylococcus aureus, 138A, S. aureus 13-8-A
Method in brief: as §1

S. faecalis (8043) = test: In vitro antibacterial MIC/MBC test; type: cell-based; conditions: Enterococcus faecalis, ATCC8043, S. faecalis ATCC No. 8043
Method in brief: as §1

S. epidermidis 1-3-H = test: In vitro antibacterial MIC/MBC test; type: cell-based; conditions: Staphylococcus epidermidis, 13H, S. epidermidis 1-3-H
Method in brief: as §1

S. aureus 21-81A = test: In vitro antibacterial MIC/MBC test; type: cell-based; conditions: Staphylococcus aureus, 2181A, S. aureus 21-81A
Method in brief: as §1

S. edidermidis = test: In vitro MIC/MBC summary (Table II); type: cell-based, S. epidermidis; conditions: Staphylococcus epidermidis, 5 S. edidermidis strains
Protocol: Win 52,522 and Win 35,439 were solubilized in 0.1 ml of 0.5 N NaOH/mg of compound and diluted in sterile distilled water to 160 mcg/ml. Vancomycin and methicillin were solubilized in sterile distilled water to 1250 mcg/ml of base compound. The stock solutions were sterilized by filtration through membrane filters with a 0.45 μm pore size.
The bacterial cultures listed in Table I (hereinbelow) were grown overnight at 37° C. in MHB for all cultures except the Streptococcus strains. These were grown in BHI+10% NHS. The overnight broth cultures were adjusted to an optical density of 0.10 (650 nm, B L Spectronic 20) in sterile distilled water and subsequently diluted to 6.7×10^6 cells/ml in MHB or BHI+1% NHS.
Serial two-fold dilutions of the compound solutions were prepared in MHB (or in BHI+1% NHS for tests with Streptococci) and dispensed into 96-well microtiter trays in a volume of 0.1 ml/well using a Sandy Springs (Bellco Glass Co.) dispenser. The trays were then inoculated with 0.0015 ml of a suspension containing 6.7×10^6 cells/ml of the appropriate inoculum using a MIC-2000 inoculator (Dynatech Corp.) resulting in a final inoculum of approximately 1×10^4 cells/well or 1×10^5 cells/ml. The trays were incubated at 37° C. for 18-20 hours and the minimal inhibitory concentration (MIC), defined as the lowest concentration of compound to inhibit visible bacterial growth, was recorded.
After the MIC values were recorded, the contents in the microtiter trays were thoroughly mixed on a Bellco Mini-orbital Shaker (Bellco Glass Co.) for 3 min. at a setting of 8. A portion (0.0015 ml) from each well was then transferred via an MIC-2000 inoculator to plates containing MHA or BHI agar+10% NHS. The plates were incubated at 37° C. for 18-20 hrs. The minimal bactericidal concentration (MBC), defined as the lowest concentration of compound that prevented the formation of a recognizable colony on the agar surface, was recorded.

## CCn1cc(C(=O)O)c(=O)c2ccc(-c3cc(C)nc(C)c3)cc21 [Win 35,439, 1-ethyl-1,4-dihydro-7-(2,6-dimethyl-4-pyridinyl)-4-oxo-3-quinolinecarboxylic acid]
S. epidermidis 2-1-B; read-out: MBC
  MBC: 0.25 µg/mL (≈ 0.776 µM)
S. epidermidis 2-1-B; read-out: MIC
  MIC: 0.25 µg/mL (≈ 0.776 µM)
S. epidermidis (17917); read-out: MBC
  MBC: 0.5 µg/mL (≈ 1.55 µM)
S. epidermidis (17917); read-out: MIC
  MIC: 0.5 µg/mL (≈ 1.55 µM)
S. aureus 59-81; read-out: MBC
  MBC: 0.25 µg/mL (≈ 0.776 µM)
S. aureus 59-81; read-out: MIC
  MIC: 0.125 µg/mL (≈ 0.388 µM)
S. aureus 24-81; read-out: MBC
  MBC: 0.125 µg/mL (≈ 0.388 µM)
S. aureus 24-81; read-out: MIC
  MIC: 0.06 µg/mL (≈ 0.186 µM)
S. pneumoniae Type I; read-out: MBC
  MBC: 2 µg/mL (≈ 6.2 µM)
S. pneumoniae Type I; read-out: MIC
  MIC: 2 µg/mL (≈ 6.2 µM)
S. aureus VA16951; read-out: MBC
  MBC: 0.06 µg/mL (≈ 0.186 µM)
S. aureus VA16951; read-out: MIC
  MIC: 0.06 µg/mL (≈ 0.186 µM)
S. pyogenes 7948-15; read-out: MBC
  MBC: > 16 µg/mL
S. pyogenes 7948-15; read-out: MIC
  MIC: 4 µg/mL (≈ 12.4 µM)
S. aureus Smith; read-out: MBC
  MBC: 0.125 µg/mL (≈ 0.388 µM)
S. aureus Smith; read-out: MIC
  MIC: 0.125 µg/mL (≈ 0.388 µM)
S. aureus (25923); read-out: MBC
  MBC: 0.125 µg/mL (≈ 0.388 µM)
S. aureus (25923); read-out: MIC
  MIC: 0.125 µg/mL (≈ 0.388 µM)
S. enterococcus 0-2-13; read-out: MBC
  MBC: 2 µg/mL (≈ 6.2 µM)
S. enterococcus 0-2-13; read-out: MIC
  MIC: 2 µg/mL (≈ 6.2 µM)
S. aureus 39881; read-out: MBC
  MBC: 0.06 µg/mL (≈ 0.186 µM)
S. aureus 39881; read-out: MIC
  MIC: 0.06 µg/mL (≈ 0.186 µM)
S. aureus S-234; read-out: MBC
  MBC: 0.125 µg/mL (≈ 0.388 µM)
S. aureus S-234; read-out: MIC
  MIC: 0.06 µg/mL (≈ 0.186 µM)
S. faecalis 4510; read-out: MBC
  MBC: 0.5 µg/mL (≈ 1.55 µM)
S. faecalis 4510; read-out: MIC
  MIC: 0.5 µg/mL (≈ 1.55 µM)
S. aureus 41-81; read-out: MBC
  MBC: 0.25 µg/mL (≈ 0.776 µM)
S. aureus 41-81; read-out: MIC
  MIC: 0.06 µg/mL (≈ 0.186 µM)
S. aureus 4-81; read-out: MBC
  MBC: 0.125 µg/mL (≈ 0.388 µM)
S. aureus 4-81; read-out: MIC
  MIC: 0.06 µg/mL (≈ 0.186 µM)
S. epidermidis (12228); read-out: MBC
  MBC: 0.25 µg/mL (≈ 0.776 µM)
S. epidermidis (12228); read-out: MIC
  MIC: 0.25 µg/mL (≈ 0.776 µM)
S. aureus 13-8-A; read-out: MBC
  MBC: 0.125 µg/mL (≈ 0.388 µM)
S. aureus 13-8-A; read-out: MIC
  MIC: 0.06 µg/mL (≈ 0.186 µM)
S. faecalis (8043); read-out: MBC
  MBC: 2 µg/mL (≈ 6.2 µM)
S. faecalis (8043); read-out: MIC
  MIC: 1 µg/mL (≈ 3.1 µM)
S. epidermidis 1-3-H; read-out: MBC
  MBC: 0.25 µg/mL (≈ 0.776 µM)
S. epidermidis 1-3-H; read-out: MIC
  MIC: 0.25 µg/mL (≈ 0.776 µM)
S. aureus 21-81A; read-out: MBC
  MBC: 0.125 µg/mL (≈ 0.388 µM)
S. aureus 21-81A; read-out: MIC
  MIC: 0.06 µg/mL (≈ 0.186 µM)
S. edidermidis; read-out: MBC 50%
  MBC: 0.25 µg/mL (≈ 0.776 µM)
S. edidermidis; read-out: MBC 90%
  MBC: 0.25 µg/mL (≈ 0.776 µM)
S. edidermidis; read-out: MBC Range
  MBC: 0.25 to 0.5 µg/mL (≈ 0.776 to 1.55 µM)
S. edidermidis; read-out: MIC 50%
  MIC50: 0.25 µg/mL (≈ 0.776 µM)
S. edidermidis; read-out: MIC 90%
  MIC90: 0.25 µg/mL (≈ 0.776 µM)
S. edidermidis; read-out: MIC Range
  MIC: 0.25 to 0.5 µg/mL (≈ 0.776 to 1.55 µM)
